According to PubChem BioAssay (NCI):
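In this assay, cells in 96-well plates receive the compound at five concentrations for 48 hours. Endpoints are linearly interpolated between the surrounding concentrations. Here, GI50 denotes the concentration required for 50% inhibition of growth. TGI denotes the concentration required for complete inhibition of growth.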

Assays:
Experiment in all cases: DTP human tumour cell line panel, 48 h
NCI/ADR-RES ovarian = tested on: NCI/ADR-RES ovarian
MDA-MB-435 = tested on: MDA-MB-435
KM12 colon = tested on: KM12 colon
EKVX NSCLC = tested on: EKVX NSCLC
NCI-H23 lung = tested on: NCI-H23 lung
OVCAR-4 ovarian = tested on: OVCAR-4 ovarian
SNB-19 CNS = tested on: SNB-19 CNS
ACHN renal = tested on: ACHN renal
SF-268 CNS = tested on: SF-268 CNS
CAKI-1 renal = tested on: CAKI-1 renal
786-0 renal = tested on: 786-0 renal
SF-539 CNS = tested on: SF-539 CNS
SK-OV-3 ovarian = tested on: SK-OV-3 ovarian
SK-MEL-28 melanoma = tested on: SK-MEL-28 melanoma
DU-145 prostate = tested on: DU-145 prostate
SF-295 CNS = tested on: SF-295 CNS
A549 NSCLC = tested on: A549 NSCLC
NCI-H226 lung = tested on: NCI-H226 lung
UO-31 renal = tested on: UO-31 renal
A498 renal = tested on: A498 renal
RXF 393 renal = tested on: RXF 393 renal
T-47D breast = tested on: T-47D breast
OVCAR-3 ovarian = tested on: OVCAR-3 ovarian
PC-3 prostate = tested on: PC-3 prostate
HCC-2998 colon = tested on: HCC-2998 colon
CCRF-CEM leukemia = tested on: CCRF-CEM leukemia
SR leukemia = tested on: SR leukemia
IGROV1 ovarian = tested on: IGROV1 ovarian
M14 melanoma = tested on: M14 melanoma
HCT-15 colon = tested on: HCT-15 colon
OVCAR-8 ovarian = tested on: OVCAR-8 ovarian
UACC-62 melanoma = tested on: UACC-62 melanoma
NCI-H460 lung = tested on: NCI-H460 lung
SN12C renal = tested on: SN12C renal
MCF7 breast = tested on: MCF7 breast
HT29 colon = tested on: HT29 colon
HOP-62 NSCLC = tested on: HOP-62 NSCLC
BT-549 breast = tested on: BT-549 breast
HCT-116 colon = tested on: HCT-116 colon
HL-60(TB) leukemia = tested on: HL-60(TB) leukemia
COLO 205 colon = tested on: COLO 205 colon
TK-10 renal = tested on: TK-10 renal
MOLT-4 leukemia = tested on: MOLT-4 leukemia
SW-620 colon = tested on: SW-620 colon
K-562 leukemia = tested on: K-562 leukemia
HS 578T breast = tested on: HS 578T breast
MALME-3M melanoma = tested on: MALME-3M melanoma
NCI-H522 lung = tested on: NCI-H522 lung
U251 CNS = tested on: U251 CNS
OVCAR-5 ovarian = tested on: OVCAR-5 ovarian
RPMI-8226 leukemia = tested on: RPMI-8226 leukemia

In the case of `COc1ccc(-c2ccc(/C=N/n3c(COc4ccc(Cl)c(C)c4)nn(CN4CCOCC4)c3=S)o2)c([N+](=O)[O-])c1`, the GI50 (NCI/ADR-RES ovarian) is reported as 27.6 µM, the TGI (NCI/ADR-RES ovarian) is reported as > 100 µM and the GI50 (MDA-MB-435) is reported as 21 µM. For the same compound, the TGI (MDA-MB-435) was 49.5 µM, the GI50 (KM12 colon) was 29.1 µM and the TGI (KM12 colon) was > 100 µM. The GI50 (EKVX NSCLC) was 26.4 µM, the TGI (EKVX NSCLC) was > 100 µM and the GI50 (NCI-H23 lung) was 20.2 µM. It also gave a TGI (NCI-H23 lung) of 51.6 µM, a GI50 (OVCAR-4 ovarian) of 31.9 µM and a TGI (OVCAR-4 ovarian) of 76.7 µM. The GI50 (SNB-19 CNS) was 41.2 µM, the TGI (SNB-19 CNS) was > 100 µM and the GI50 (ACHN renal) was 39.1 µM. For the same compound, the TGI (ACHN renal) was > 100 µM, the GI50 (SF-268 CNS) was 33.8 µM and the TGI (SF-268 CNS) was > 100 µM. For the same compound, the GI50 (CAKI-1 renal) was 23.6 µM, the TGI (CAKI-1 renal) was 57.1 µM and the GI50 (786-0 renal) was 32.5 µM. The TGI (786-0 renal) was > 100 µM, the GI50 (SF-539 CNS) was 22 µM and the TGI (SF-539 CNS) was 53.9 µM. The GI50 (SK-OV-3 ovarian) was 34.4 µM, the TGI (SK-OV-3 ovarian) was > 100 µM and the GI50 (SK-MEL-28 melanoma) was 20.5 µM. The TGI (SK-MEL-28 melanoma) was 53.7 µM, the GI50 (DU-145 prostate) was 38 µM and the TGI (DU-145 prostate) was > 100 µM. It also gave a GI50 (SF-295 CNS) of 18.6 µM, a TGI (SF-295 CNS) of 46.6 µM and a GI50 (A549 NSCLC) of 19.3 µM. The TGI (A549 NSCLC) was 96.8 µM, the GI50 (NCI-H226 lung) was > 100 µM and the TGI (NCI-H226 lung) was > 100 µM. The GI50 (UO-31 renal) was 28.8 µM, the TGI (UO-31 renal) was > 100 µM and the GI50 (A498 renal) was 12.4 µM. It also gave a TGI (A498 renal) of 25.7 µM, a GI50 (RXF 393 renal) of 19.1 µM and a TGI (RXF 393 renal) of 52.7 µM. For the same compound, the GI50 (T-47D breast) was 44.1 µM, the TGI (T-47D breast) was > 100 µM and the GI50 (OVCAR-3 ovarian) was 17.3 µM. The TGI (OVCAR-3 ovarian) was 44.8 µM, the GI50 (PC-3 prostate) was 17.7 µM and the TGI (PC-3 prostate) was 51.1 µM. For the same compound, the GI50 (HCC-2998 colon) was 16.5 µM, the TGI (HCC-2998 colon) was 32.5 µM and the GI50 (CCRF-CEM leukemia) was 19.3 µM. The TGI (CCRF-CEM leukemia) was 56.2 µM, the GI50 (SR leukemia) was 26.3 µM and the TGI (SR leukemia) was 72.1 µM. For the same compound, the GI50 (IGROV1 ovarian) was 40.3 µM, the TGI (IGROV1 ovarian) was > 100 µM and the GI50 (M14 melanoma) was 25.7 µM. For the same compound, the TGI (M14 melanoma) was 66.6 µM, the GI50 (HCT-15 colon) was 30.7 µM and the TGI (HCT-15 colon) was > 100 µM. For the same compound, the GI50 (OVCAR-8 ovarian) was 33.5 µM, the TGI (OVCAR-8 ovarian) was > 100 µM and the GI50 (UACC-62 melanoma) was 30.8 µM. For the same compound, the TGI (UACC-62 melanoma) was > 100 µM, the GI50 (NCI-H460 lung) was 18.5 µM and the TGI (NCI-H460 lung) was 55.8 µM. The GI50 (SN12C renal) was 21.3 µM, the TGI (SN12C renal) was 48.1 µM and the GI50 (MCF7 breast) was > 100 µM. For the same compound, the TGI (MCF7 breast) was > 100 µM, the GI50 (HT29 colon) was 21.6 µM and the TGI (HT29 colon) was 51.2 µM. For the same compound, the GI50 (HOP-62 NSCLC) was 38.6 µM, the TGI (HOP-62 NSCLC) was > 100 µM and the GI50 (BT-549 breast) was 34.6 µM. The TGI (BT-549 breast) was 85 µM, the GI50 (HCT-116 colon) was 17.6 µM and the TGI (HCT-116 colon) was 34.3 µM. The GI50 (HL-60(TB) leukemia) was 24.1 µM, the TGI (HL-60(TB) leukemia) was 50.9 µM and the GI50 (COLO 205 colon) was 39.8 µM. The TGI (COLO 205 colon) was > 100 µM, the GI50 (TK-10 renal) was 16.5 µM and the TGI (TK-10 renal) was 50.5 µM. It also gave a GI50 (MOLT-4 leukemia) of 21.8 µM, a TGI (MOLT-4 leukemia) of 70.1 µM and a GI50 (SW-620 colon) of 19.9 µM. It also gave a TGI (SW-620 colon) of 48.9 µM, a GI50 (K-562 leukemia) of 20.4 µM and a TGI (K-562 leukemia) of 51.7 µM. The GI50 (HS 578T breast) was 37.8 µM, the TGI (HS 578T breast) was > 100 µM and the GI50 (MALME-3M melanoma) was 17.9 µM. For the same compound, the TGI (MALME-3M melanoma) was 43.1 µM, the GI50 (NCI-H522 lung) was 25.5 µM and the TGI (NCI-H522 lung) was > 100 µM. The GI50 (U251 CNS) was 30.5 µM, the TGI (U251 CNS) was > 100 µM and the GI50 (OVCAR-5 ovarian) was 33.2 µM. For the same compound, the TGI (OVCAR-5 ovarian) was > 100 µM, the GI50 (RPMI-8226 leukemia) was 12.5 µM and the TGI (RPMI-8226 leukemia) was 34.9 µM.
